Data taken from publication PMC7447754 (Nature Communications, 2020).
Where a SMILES comes first, the peptide text is derived from it.

Tested on: H1N1 virus
Details: pH 4.9

## CC[C@H](C)[C@H](NC(=O)[C@H](C)NC(=O)CNC(=O)[C@@H](N)CC(N)=O)C(=O)N[C@@H](CS)C(=O)N[C@@H](Cc1c[nH]c2ccccc12)C(=O)NCC(=O)N1CCC[C@H]1C(=O)N[C@@H](CS)C(=O)N1CCC[C@H]1C(=O)N[C@H](C(=O)N[C@@H](C)C(=O)N[C@@H](Cc1ccccc1)C(=O)N[C@@H](CCCNC(=N)N)C(=O)N[C@@H](CCC(N)=O)C(=O)N[C@H](C(=O)NCC(=O)N[C@@H](CC(N)=O)C(=O)N[C@@H](CS)C(=O)NCC(=O)N[C@@H](CCCNC(=N)N)C(=O)N[C@@H](Cc1ccccc1)C(=O)N[C@@H](CCCNC(=N)N)C(=O)N[C@H](C(=O)N[C@@H](CCCNC(=N)N)C(=O)N[C@@H](CS)C(=O)N[C@@H](CS)C(=O)N[C@@H](CCCNC(=N)N)C(=O)N[C@H](C(=O)N[C@@H](CCCNC(=N)N)C(=O)O)[C@@H](C)CC)C(C)C)[C@@H](C)CC)[C@@H](C)O [P9R] (H-NGAICWGPCPTAFRQIGNCGRFRVRCCRIR-OH)
  inhibition of viral fusion (virus-induced hemolysis): did not inhibit viral fusion
